Data on two compounds can be found in patent US10238642B2, “Methods for treating neurogenic orthostatic hypotension” (Theravance Biopharma R&D IP, LLC, priority 2016, dated 2019).

Molecules are shown by their SMILES. Values joined by “and” are separate entries in the source; they are usually repeats but may differ in a detail not shown here. Equal values may be shown once.

One data set has as its system subjects with nOH. Kind of data set: Phase 2 clinical study in subjects with nOH, Part A (dose escalation). The data set is classed as in vivo, human. More on the design: key to Improvement in Seated SBP / Improvement in Time Standing / Improvement in Dizziness or Lightheadedness: ✓: Dose-related improvement observed relative to placebo. The source says: A Phase 2 clinical trial study is being conducted with 4-[2-(2,4,6-trifluorophenoxymethyl)phenyl]piperidine hydrochloride (“Study Compound”). The study is a multicenter, randomized, two-part, single-(Part A) and double-blind (Part B) study of the Study Compound versus placebo in subjects with nOH. An open-label, extension study to evaluate efficacy, safety and tolerability of the Study Compound will also be conducted (Part C). Part A follows a daily, single, escalating dose design starting with placebo on Day 1, followed by a dose of 1 mg of Study Compound on Day 2, and proceeding to escalating higher doses of Study Compound on a daily basis up to a maximum dose of 10 mg based on safety, tolerability, and determination of a pressor effect.
Subjects included in the study are male or female between the age of 40 and 80 years (inclusive) that have been diagnosed with symptomatic orthostatic hypotension due to pure autonomic failure, multiple system atrophy or Parkinson's disease (i.e., PD plus symptoms). At screening, autonomic function testing is conducted to confirm the diagnosis of autonomic dysfunction including sinus arrhythmia and the Valsalva maneuver.
In Part A, all doses (Study Compound and placebo) are administered in a single-blind manner (i.e., subject remains blinded) using an oral dosing solution. Up to 30 subjects are enrolled in Part A. Two days before the start of Part A, subjects are admitted to the clinical research center (CRC) where they remain during the entire dose escalation period. On Day 1, subjects receive a single dose of placebo. On Day 2, subjects receive a single 1 mg dose of Study Compound. On each subsequent day, subjects receive a single escalating dose of Study Compound as follows: 2.5 mg on Day 3; 5 mg on Day 4; 10 mg on Day 5 unless the following preset stopping criteria occur: • (a) a determination from the Investigator (in collaboration with the Sponsor) that administration of the subsequent next dose may pose a safety concern; • (b) SBP ≥180 mm or DBP ≥110 mm in the sitting position replicated 2 more times over an hour; • (c) intolerable side effects as determined by the Investigator; or • (d) subject receives maximum dose of study medication specified by the protocol.
Once the subject meets any of the above criteria, no further dose escalation is performed. Following a post-dosing observation day in the clinic, the subject is released from the CRC.
Seated and standing systolic blood pressure and completion of an Orthostatic Hypotension Symptom Assessment (OHSA) questionnaire are used to assess efficacy. For Part C, ambulatory blood pressure monitoring is used if available to measure blood pressure every 2 hours for 24-hour period before dosing on Day 1; and 72 to 48 hours before Day 15, Day 29, Day 85 and Day 169 clinic visits. Additionally, blood pressure is taken 20-30 mins before eating each morning about being supine (30 degree elevation) for at least 10 mins.
For both Parts A and B, the primary study endpoint is the difference from placebo of seated systolic blood pressure at 6 to 8 hours after drug administration. For Part A, placebo refers to the Day 1 visit, and the difference from placebo refers to the time-matched difference from each Study Compound dosing day (Days 2 through 5) relative to placebo dosing (Day 1). For Part C, primary study endpoint is improvement in the Likert scale for “dizziness, lightheadedness, feeling faint, or feeling like you might black out” (OHSA question 1) at week 4. […]

Data set [1] can be described thus: Differential scanning calorimetry. Particulars: heated 10° C./min from 22° C. to 250° C. The class given is physicochemical. The protocol:
Differential scanning calorimetry (DSC) was performed using a TA Instruments Model Q-100 module with a Thermal Analyst controller. Data were collected and analyzed using TA Instruments Thermal Solutions software. A 2.8 mg sample of the crystalline hydrochloride salt of Example 8 was accurately weighed into a covered aluminum pan. After a 5 minute isothermal equilibration period at 22° C., the sample was heated using a linear heating ramp of 10° C./min from 22° C. to 250° C. A representative DSC thermograph is shown in FIG. 2 of U.S. Pat. No. 8,304,433 B2.
In general terms: In DSC, transitions show as peaks or steps in heat flow.

A further data set has as its system other CYP450 enzymes. The conditions noted are these: cited from earlier work.
Where [2] appears, read: individual patient, Part A, oral solution up to 10 mg/day, vs placebo, preliminary.

As for `Cl.Fc1cc(F)c(OCc2ccccc2C2CCNCC2)c(F)c1` [4-[2-(2,4,6-Trifluorophenoxymethyl)phenyl]piperidine Hydrochloride], the “MSA patients showing improvement relative to placebo in at least one category” value with subjects with nOH (MSA patients completing Part A, 6 of 6) is reported as 100%. For the same compound, in the data set on subjects with nOH (setting [2]), the “Improvement in Dizziness or Lightheadedness” value was “✓” and the “Improvement in Time Standing” value is on record as “✓”. In the data set on subjects with nOH (individual patient, Part A, oral solution up to 10 mg/day, vs placebo, preliminary, Hydrochloride), the “Improvement in Seated SBP” value was “✓ (6×) and ✓^2”. The “patients showing an improvement relative to placebo in at least one of seated SBP, standing time, dizziness or lightheadedness” value in the data set with subjects with nOH (patients completing Part A, 10 of 12) turned out to be 83%. In addition, in data set [1], the “thermal stability by DSC” value was “excellent thermal stability”.
In the case of `CNCC[C@@H](Oc1ccccc1C)c1ccccc1` [atomoxetine], the “impact of inhibition of other CYP450 enzymes on metabolism” value with other CYP450 enzymes is given as “not significantly impacted”.
